Experimental data from patent publication US11273152B2, “TRPV2 antagonists” (Instituto de Medicina Molecular João Lobo Antunes, priority 2017, dated 2022).

How the values were obtained:
[1] = target: TRPV3 (Homo sapiens, UniProt Q8NET8); experiment: Fluorescence cell-based assay, TRPV3; settings: calcium 5 dye, duplicate
Method: The assays were performed at SB Discovery (Glasgow, UK) on a fee-for-service basis. Human TRP cells were trypsinised, counted and seeded in black, clear-bottomed 96 well plates at a density of 50,000 cells per well in 100 μL volume and incubated overnight. Next day, the cells were loaded with calcium 5 dye or membrane potential dye. TRPV1-5, TRPA1, TRPM2, TRPM3, and TRPM8 were tested using the calcium 5 dye. TRPC1, TRPC3-7, and TRPM4-5 were tested using the membrane potential dye. Both dye solutions were made up in HEPES buffered Hank's balanced salt solution (HBSS). Dye solution (90 μL) was added to the wells and incubated at 37° C. for 1 hour. Test compounds and standard inhibitors (10 μL) were then added to the wells and incubated at room temperature for 10 minutes. The plates were then placed in the flexstation and fluorescence monitored every 1.52 seconds. After 20 seconds agonist was added and the fluorescence monitored for 2 minutes at 485 nm/525 nm and 530 nm/565 nm, Ex/Em, for the calcium 5 dye and the membrane potential dye respectively. Controls-TRPV1: capsazepine; TRPV2: tranilast; TRPV3: ruthenium red; TRPV4: ruthenium red; TRPV5: Gd^3+; TRPA1, ruthenium red; TRPC1: Gd^3+; TRPC3: Pyr3; TRPC4: ML 204; TRPC5: ML 204; TRPC6: ML 204; TRPC7: SKF 96365; TRPM2: 2-APB; TRPM3: Mef acid; TRPM4: clotrimazole; TRPM5: TPPO; TRPM8: 2-APB. […]

[2] = Dynamic light scattering, colloidal aggregation; type: physicochemical; settings: water, 25° C.
Method: Dynamic light scattering (Zetasizer Nano S, Malvern, UK) was used to determine compound colloidal aggregation. The particle sizes were measured at 25° C. Water solubility was measured as described elsewhere with successive measurements within 60 minutes.^35 A 100 mM stock solution of piperlongumine was prepared in DMSO, following dilution to deionized water to obtain an analyte solution of 100 μM (0.1% DMSO). Colloidal aggregation was measured through sequential dilutions.

[3] = test system: HEK293 cells; experiment: Viability of HEK cells transiently transfected with TRPV2; type: cell-based, human
Method: 75,000 HEK293 cells were seeded in each well of a 24 well plate. The next day cells were transfected with hTRPV2-RFP plasmid (kindly gifted by Prof. Itaru Kojima, Gunma University, Japan). After incubating for 24 hours the media was changed and PL was added at 5 and 10 μM. 24 hours later cell viability was assessed using CellTitre-Blue (Promega) or Annexin V, 7-AAD staining. Transfection efficiency was assessed using flow cytometry.
Cells were harvested from plates by washing with media (HEK293) or TrypLE express (Gibco). The media was removed after centrifugation and the cells were washed twice with binding buffer before being incubated for 30 minutes at room temperature with Annexin V-APC (eBiosciences, 1:100) and 7-AAD (Pharmigen, 1:50). Samples were diluted with binding buffer and analyzed by flow cytometry using BD LSRFortessa X-20 with FACS Diva software. Samples with single stains were used as controls.

Sequence of TRPV3 (Q8NET8 whole entry): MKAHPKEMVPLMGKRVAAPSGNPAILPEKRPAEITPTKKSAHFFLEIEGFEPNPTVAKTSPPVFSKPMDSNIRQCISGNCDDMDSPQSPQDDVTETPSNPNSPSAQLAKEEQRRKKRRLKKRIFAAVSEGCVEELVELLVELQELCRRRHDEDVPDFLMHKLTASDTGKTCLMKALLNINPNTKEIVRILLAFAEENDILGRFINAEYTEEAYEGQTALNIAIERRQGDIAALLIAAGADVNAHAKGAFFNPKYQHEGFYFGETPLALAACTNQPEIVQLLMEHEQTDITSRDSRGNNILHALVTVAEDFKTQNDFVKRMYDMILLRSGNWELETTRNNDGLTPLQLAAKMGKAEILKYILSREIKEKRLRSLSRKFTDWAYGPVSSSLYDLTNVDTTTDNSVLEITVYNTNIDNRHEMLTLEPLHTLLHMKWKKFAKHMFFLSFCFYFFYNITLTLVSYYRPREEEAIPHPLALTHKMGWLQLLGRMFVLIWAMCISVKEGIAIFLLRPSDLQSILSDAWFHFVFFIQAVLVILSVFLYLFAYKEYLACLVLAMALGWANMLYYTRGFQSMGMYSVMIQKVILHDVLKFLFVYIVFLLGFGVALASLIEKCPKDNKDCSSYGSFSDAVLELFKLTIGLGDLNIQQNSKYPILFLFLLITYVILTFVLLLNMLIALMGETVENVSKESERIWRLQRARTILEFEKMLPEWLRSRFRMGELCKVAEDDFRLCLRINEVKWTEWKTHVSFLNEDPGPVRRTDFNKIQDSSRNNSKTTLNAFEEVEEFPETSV

COc1cc(/C=C/C(=O)N2CCC=CC2=O)cc(OC)c1OC [Compound 1, piperlongumine]
IC50 [1]: > 100 µM | Colloidal aggregation (dynamic light scattering) [2]: absence of colloidal aggregate-induced inhibition | Viability of TRPV2-transfected cells vs non-transfected controls [3]: identical result
